Laboratory results from article PMC6722883 (FEBS Open Bio, 2019).

Experiments:
[1] = target: T1, α3β4 nAChR expressed in Xenopus oocytes (Rattus norvegicus, UniProt P04757+P12392); test: cell-based; type: cell-based
T1 construct: expressed in transfected cells; host or cells: Xenopus oocytes injected with cRNA

[2] = pH 3
[3] = buffer or solvent
physchem [4] = conditions: buffer or solvent
[5] = target: human serum albumin (HSA) (Homo sapiens, UniProt P02768); conditions: pH 7.2
physchem [6] = conditions: not applicable

T1 sequence (P04757 26-499 limits assumed): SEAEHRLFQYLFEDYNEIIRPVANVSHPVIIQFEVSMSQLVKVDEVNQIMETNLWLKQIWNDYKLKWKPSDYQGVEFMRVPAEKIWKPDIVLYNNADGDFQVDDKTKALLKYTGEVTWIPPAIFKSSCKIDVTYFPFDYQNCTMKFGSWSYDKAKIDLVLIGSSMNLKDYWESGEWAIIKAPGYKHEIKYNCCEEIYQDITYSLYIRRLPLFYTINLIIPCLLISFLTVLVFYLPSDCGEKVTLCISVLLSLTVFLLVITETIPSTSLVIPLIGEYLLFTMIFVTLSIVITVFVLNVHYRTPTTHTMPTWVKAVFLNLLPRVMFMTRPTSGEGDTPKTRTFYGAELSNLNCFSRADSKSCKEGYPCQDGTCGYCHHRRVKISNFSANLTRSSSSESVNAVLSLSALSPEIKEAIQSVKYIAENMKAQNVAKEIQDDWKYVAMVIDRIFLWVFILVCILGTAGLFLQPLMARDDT
T1 sequence (P12392 21-495 limits assumed): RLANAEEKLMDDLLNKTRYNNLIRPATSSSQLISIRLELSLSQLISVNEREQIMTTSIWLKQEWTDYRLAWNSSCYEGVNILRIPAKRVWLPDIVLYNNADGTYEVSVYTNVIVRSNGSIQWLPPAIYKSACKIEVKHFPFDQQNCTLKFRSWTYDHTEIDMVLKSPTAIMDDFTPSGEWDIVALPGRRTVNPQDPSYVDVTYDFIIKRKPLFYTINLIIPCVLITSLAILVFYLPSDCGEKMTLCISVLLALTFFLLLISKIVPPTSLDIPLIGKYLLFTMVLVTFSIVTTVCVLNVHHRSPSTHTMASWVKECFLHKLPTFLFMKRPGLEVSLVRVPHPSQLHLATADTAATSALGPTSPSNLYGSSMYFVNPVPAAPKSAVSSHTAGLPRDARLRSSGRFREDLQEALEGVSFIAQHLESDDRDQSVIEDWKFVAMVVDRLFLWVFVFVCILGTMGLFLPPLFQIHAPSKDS
Sequence of human serum albumin (HSA) (P02768 25-609 limits assumed): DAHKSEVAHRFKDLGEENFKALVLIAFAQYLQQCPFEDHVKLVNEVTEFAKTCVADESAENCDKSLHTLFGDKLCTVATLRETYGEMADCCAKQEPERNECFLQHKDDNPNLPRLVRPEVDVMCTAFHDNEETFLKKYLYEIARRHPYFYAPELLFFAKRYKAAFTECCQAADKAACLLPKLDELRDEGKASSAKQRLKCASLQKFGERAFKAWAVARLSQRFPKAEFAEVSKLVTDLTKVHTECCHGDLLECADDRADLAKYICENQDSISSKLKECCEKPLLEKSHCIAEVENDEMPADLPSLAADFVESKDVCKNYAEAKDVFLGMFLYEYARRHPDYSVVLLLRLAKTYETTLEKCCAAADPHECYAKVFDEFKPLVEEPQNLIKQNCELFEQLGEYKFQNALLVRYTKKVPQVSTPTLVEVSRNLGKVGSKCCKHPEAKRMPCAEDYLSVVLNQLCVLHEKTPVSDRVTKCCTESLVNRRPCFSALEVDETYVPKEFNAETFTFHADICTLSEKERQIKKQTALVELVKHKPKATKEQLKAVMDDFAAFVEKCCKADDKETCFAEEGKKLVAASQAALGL

| SMILES | Hill slope [1] | IC50 [1] | Response at 100 nM [1] | Degradation rate constant K obs (50 °C) [2] | Degradation rate constant K obs (60 °C) [2] | Degradation rate constant K obs (70 °C) [2] | Degradation rate constant K obs (80 °C) [2] | E a, activation energy [2] | t0.5, half-life period at 25 °C [2] | t0.9, validity period at 25 °C [2] | remaining at 8 h [3] | remaining at 1 min (physchem [4]) | remaining at 16 h (physchem [4]) | Globular isomer remaining, % of the total [5] | remaining at 168 h (physchem [6]) |
| --- | --- | --- | --- | --- | --- | --- | --- | --- | --- | --- | --- | --- | --- | --- | --- |
| CC[C@H](C)[C@@H]1NC(=O)[C@@H]2CCCN2C(=O)[C@H](CO)NC(=O)[C@H](CC[S+](C)[O-])NC(=O)[C@H](C)NC(=O)[C@H](CO)NC(=O)[C@@H]2CSSC[C@H](NC(=O)CN)C(=O)N[C@@H](CSSC[C@@H](C(N)=O)NC1=O)C(=O)N[C@@H](CO)C(=O)N[C@@H](Cc1c[nH]cn1)C(=O)N1CCC[C@H]1C(=O)N[C@@H](C(C)C)C(=O)N2 (stereo partly shown) [Product I] | 0.76 (0.65–0.86) | 503 nM | 15% |  |  |  |  |  |  |  |  |  |  |  |  |
| CC[C@H](C)[C@@H]1NC(=O)[C@@H]2CCCN2C(=O)[C@H](CO)NC(=O)[C@H](CCSC)NC(=O)[C@H](C)NC(=O)[C@H](CO)NC(=O)[C@@H]2CSSC[C@H](NC(=O)CN)C(=O)N[C@@H](CSSC[C@@H](C(N)=O)NC1=O)C(=O)N[C@@H](CO)C(=O)N[C@@H](Cc1cnc[nH]1)C(=O)N1CCC[C@H]1C(=O)N[C@@H](C(C)C)C(=O)N2 [TxID, α‐Conotoxin TxID] | 1.17 (0.87–1.46) |  |  | 1.01 × 10^−3 1/Mh | 2.42 × 10^−3 1/Mh | 5.54 × 10^−3 1/Mh | 2.02 × 10^−2 1/Mh | 27.9842 kcal/mol | 707 days | 107 days | 36% | 71% | 63% | 75% | 95% |
